Test results taken from patent US9695119B2, “Methionine analogs and methods of using same” (Bioxiness Pharmaceuticals, Inc., priority 2008, dated 2017).
Where two headings read alike, the source gives them in different places.

Legend:
[1] = tested on: E. coli (DH5-α); assay: MBC spot inoculation onto gridded agar plate (growth or no growth); type: cell-based; settings: spot inoculation from well 12, 11 and 10
Description: MBC was determined by plating 5 μL of each sample onto a gridded agar plate (see, for example, FIG. 1B). Plates were then incubated overnight at 37° C., and examined for growth or no growth. The concentration at which there was a complete absence of colony growth was determined to be the MBC. For FIGS. 1A and 1B, the 96-well plate format was used to culture E. coli (DH5-α) cells in M9 minimal media supplemented with glucose (M9) or same media supplemented with a range of concentrations of various analogs. Experiments were carried out in duplicate.

[2] = tested on: B. subtillus; assay: Broad spectrum bacterial growth inhibition, 96-well plate, M9 media; type: cell-based; set-up: unit not given here
Description: (§1) Table 2 and FIG. 2 summarizes a series of studies, which were performed to test eradication of bacterial growth using various species (representative strains of gram positive and gram negative microorganisms commonly associated with wound infection). A 96-well plate format was used to culture different bacteria in M9 minimal media supplemented with glucose (M9) or same media supplemented with a range of concentrations of various analogues (Methionine, I-AA and I-AB). Experiments were carried out in duplicate.

[3] = tested on: E. coli; assay: as above; type: cell-based; set-up: unit not given here
Description: as §1

[4] = tested on: P. aeruginosa; assay: as above; type: cell-based; set-up: unit not given here
Description: as §1

[5] = tested on: test bacteria (gram positive and gram negative microorganisms commonly associated with wound infection); assay: Broad spectrum bacterial growth inhibition, all test species together; type: cell-based; settings: different bacteria in M9 minimal media
Description: as §1

[6] = tested on: CV-1 (African Green Monkey Kidney Cells) cells; settings: 60 min, pH 7
Description: Preliminary studies of cytotoxicity were performed in a mammalian cell viability assay.
CV-1 cells were propagated in DMEM plus 8% FBS according to supplier's recommendations. CV-1 cells were seeded at 1.5×10^4 cells per well in 96-well plates and incubated overnight at 37° C. On the day of testing, growth medium was aspirated from each well, and 20 μl fresh medium was added per well. Test articles were diluted from 50 mM to 0.05 mM by 2-fold serial dilution using PBS at pH 7.0 for each test article. After which 80 μl of each dilution was added to each well for a total volume of 100 μl per well. Following 60 minutes exposure at 37° C., test articles were aspirated and replaced with fresh 100 μl tissue culture media and incubated for 24 hours at 37° C. Next day cell culture media was removed and cell viability was determined by addition of WST-8 (Dojindo, Japan) reagent and the absorption at 450 nm read spectrophotometrically. Orange-red formazan, which is produced by live cells, is a direct measure of cell viability in this assay.
(§2) Results are expressed as percentage of cells surviving the treatment as compared to PBS.

[7] = tested on: L929 cells; settings: mouse, 60 min
Description: Cytotoxicity is assessed by a colorimetric assay system (Sagripanti J-L, Bonifacino A. Cytotoxicity of Liquid Disinfectants. Surgical Infections, 2000; 1(1): 3-14, the content of which is hereby incorporated by reference, particularly with respect to the experimental methods described therein), using 3′-(phenylamino-carbonyl)-3,4-tetrazo-lium-bis(4-methoxy-6-nitro) benzene sulfonic acid hydrate (XTT), ProCheck™ cell viability assay (Evaluation of a soluble tetrazolium/formazan assay for cell growth and drug sensitivity in culture using human and other tumor cell lines described by Scudiero D A, Shoemaker R A H, Paul K D, Monks A, Tierney S, Nofziger T H, Currens M J, Seniff D, Boyd M R. Cancer Res. 1988 Sep. 1; 48(17):4827-33, the content of which is hereby incorporated by reference, particularly with respect to the experimental methods described therein). Similar approaches for determining the cell viability are used by other investigators. Three cell types are used: […] (L929), primary human skin fibroblast and primary human keratinocyte cells cultured in Dulbecco Modified Eagle's Medium and Keratinocyte defined medium with corresponding growth factors plus antibiotics. Cells are trypsinized and counted under the microscope and seeded at 1000-to-2000 cells per well of a flat-bottom 96-well plate. Cells are allowed to grow overnight at 37° C. Tissue culture media is removed the following day and cells are rinsed with fresh media 1× and then left in 50 μL of tissue culture media. Test articles are prepared as 2-fold dilutions and 200 μL is added into each set of 4-wells (total volume per well is 250 μL). Cells are exposed to test articles for 60 min at room temperature. Immediately after the exposed time, test article from each well is removed and cells are fed with 250 μL of fresh media. Plates are incubated at 37° C. for 18-20 hr. The following day media is removed again and replaced with 100 μL/well of fresh media containing 10/100 μL XTT-reagent. Cells are incubated under growth conditions (5% CO2 at 37° C. humidified incubator), protected from light, until color development is achieved. Absorbance is read at 450 nm with reference wavelength at 750 nm using Molecular Device ThermoMax Plate reader, blanking the plate on the medium-only assay blank wells. Untreated cells receiving XTT reagents-only serve as positive cell proliferation control.
as §2

CSCC[C@H](NC(=O)CN)C(=O)NO.Cl [I-AB, (S)-2-(2-aminoacetamido)-N-hydroxy-4-(methylthio)butanamide hydrochloride]
Re-growth after spot inoculation on agar plate [1]: absence of re-growth | Broad Spectrum Bacterial Growth Inhibition Data, B. subtillus ([2]; Conc. 0.0, well 4, M9 media): 0.5 | Broad Spectrum Bacterial Growth Inhibition Data, B. subtillus ([2]; Conc. 0.1, well 5, M9 media): 0.5 | Broad Spectrum Bacterial Growth Inhibition Data, B. subtillus ([2]; Conc. 0.2, well 6, M9 media): 0.4 | Broad Spectrum Bacterial Growth Inhibition Data, B. subtillus ([2]; Conc. 0.4, well 7, M9 media): 0.4 | Broad Spectrum Bacterial Growth Inhibition Data, B. subtillus ([2]; Conc. 0.8, well 8, M9 media): 0.2 | Broad Spectrum Bacterial Growth Inhibition Data, B. subtillus ([2]; Conc. 1.6, well 9, M9 media): 0.2 | Broad Spectrum Bacterial Growth Inhibition Data, B. subtillus ([2]; Conc. 3.1, well 10, M9 media): 0.2 | Broad Spectrum Bacterial Growth Inhibition Data, B. subtillus ([2]; Conc. 6.3, well 11, M9 media): 0.2 | Broad Spectrum Bacterial Growth Inhibition Data, B. subtillus ([2]; Conc. 12.5, well 12, M9 media): 0.2 | Broad Spectrum Bacterial Growth Inhibition Data, E. coli ([3]; Conc. 0.0, well 4, M9 media): 0.4 | Broad Spectrum Bacterial Growth Inhibition Data, E. coli ([3]; Conc. 0.1, well 5, M9 media): 0.4 | Broad Spectrum Bacterial Growth Inhibition Data, E. coli ([3]; Conc. 0.2, well 6, M9 media): 0.4 | Broad Spectrum Bacterial Growth Inhibition Data, E. coli ([3]; Conc. 0.4, well 7, M9 media): 0.4 | Broad Spectrum Bacterial Growth Inhibition Data, E. coli ([3]; Conc. 0.8, well 8, M9 media): 0.5 | Broad Spectrum Bacterial Growth Inhibition Data, E. coli ([3]; Conc. 1.6, well 9, M9 media): 0.4 | Broad Spectrum Bacterial Growth Inhibition Data, E. coli ([3]; Conc. 3.1, well 10, M9 media): 0.2 | Broad Spectrum Bacterial Growth Inhibition Data, E. coli ([3]; Conc. 6.3, well 11, M9 media): 0.2 | Broad Spectrum Bacterial Growth Inhibition Data, E. coli ([3]; Conc. 12.5, well 12, M9 media): 0.2 | Broad Spectrum Bacterial Growth Inhibition Data, P. aeruginosa ([4]; Conc. 0.0, well 4, M9 media): 1.1 | Broad Spectrum Bacterial Growth Inhibition Data, P. aeruginosa ([4]; Conc. 0.1, well 5, M9 media): 1.0 | Broad Spectrum Bacterial Growth Inhibition Data, P. aeruginosa ([4]; Conc. 0.2, well 6, M9 media): 1.0 | Broad Spectrum Bacterial Growth Inhibition Data, P. aeruginosa ([4]; Conc. 0.4, well 7, M9 media): 1.0 | Broad Spectrum Bacterial Growth Inhibition Data, P. aeruginosa ([4]; Conc. 0.8, well 8, M9 media): 1.0 | Broad Spectrum Bacterial Growth Inhibition Data, P. aeruginosa ([4]; Conc. 1.6, well 9, M9 media): 1.0 | Broad Spectrum Bacterial Growth Inhibition Data, P. aeruginosa ([4]; Conc. 3.1, well 10, M9 media): 1.0 | Broad Spectrum Bacterial Growth Inhibition Data, P. aeruginosa ([4]; Conc. 6.3, well 11, M9 media): 0.1 | Broad Spectrum Bacterial Growth Inhibition Data, P. aeruginosa ([4]; Conc. 12.5, well 12, M9 media): 0.1 | Concentration dependence of bacterial growth inhibition [5]: concentration-dependent | Time within which most bacteria were killed [5]: ≤ 24 h | Percentage of Surviving CV-1 cells relative to PBS ([6]; 0.1 mM): 97% | Percentage of Surviving CV-1 cells relative to PBS ([6]; 0.2 mM): 94% | Percentage of Surviving CV-1 cells relative to PBS ([6]; 0.39 mM): 97% | Percentage of Surviving CV-1 cells relative to PBS ([6]; 0.78 mM): 97% | Percentage of Surviving CV-1 cells relative to PBS ([6]; 1.56 mM): 98% | Percentage of Surviving CV-1 cells relative to PBS ([6]; 3.13 mM): 100% | Percentage of Surviving CV-1 cells relative to PBS ([6]; 6.25 mM): 100% | Percentage of Surviving CV-1 cells relative to PBS ([6]; 12.5 mM): 101% | Percentage of Surviving CV-1 cells relative to PBS ([6]; 25 mM): 100% | Percentage of Surviving CV-1 cells relative to PBS ([6]; 50 mM): 60% | Percentage of Surviving L929 cells relative to control ([7]; 0.1 mM): 99% | Percentage of Surviving L929 cells relative to control ([7]; 0.2 mM): 92% | Percentage of Surviving L929 cells relative to control ([7]; 0.39 mM): 88% | Percentage of Surviving L929 cells relative to control ([7]; 0.78 mM): 90% | Percentage of Surviving L929 cells relative to control ([7]; 1.56 mM): 89% | Percentage of Surviving L929 cells relative to control ([7]; 3.13 mM): 86% | Percentage of Surviving L929 cells relative to control ([7]; 6.25 mM): 88% | Percentage of Surviving L929 cells relative to control ([7]; 12.5 mM): 89% | Percentage of Surviving L929 cells relative to control ([7]; 25 mM): 92% | Percentage of Surviving L929 cells relative to control ([7]; 50 mM): 75%
